Measurements published in the supplement of paper PMC6470124.

How the values were obtained:
[1] = absolute recovery over vacuum-assisted evaporative concentration; higher = better recovery; details: enrichment method: VEC
In short: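 After spiking with standards before concentration, after concentration or not at all, at 1000 ng/L for wastewater or 200 ng/L for nanopure and surface water with class- and compound-specific adjustments, samples of 6 mL influent, 15 mL effluent and 60 mL surface or nanopure water were evaporated at 55 °C and 20 mbar to about 0.3 mL. They were brought to 0.4 mL, centrifuged, given internal standards and analysed by LC-HRMS/MS. Absolute recovery, (response ratio pre − unspiked)/(post − unspiked) × 100, used averages of ≥ 2 replicates.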

[2] = absolute recovery over mixed-bed multilayer solid-phase extraction; higher = better recovery; details: enrichment method: SPE
In short: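 Absolute recovery rests on background-corrected response ratios of pre- versus post-spiked samples, averaged over at least two replicates. Wastewater (100–250 mL, pH 6.5, glass-fibre filtered) was spiked at 1000 ng/L and unfiltered nanopure water (1000 mL) at 200 ng/L, before or after three-layer mixed-bed cartridge extraction or not at all, with exceptions for some classes. Analysis after internal standard addition used liquid chromatography with high-resolution tandem mass spectrometry in both ionisation modes.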

[3] = LC retention time (Atlantis T3, 5-95% MeOH gradient, 0.1% formic acid); higher = more retained / less polar
In short: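 Retention times were recorded for reference standards (purity ≥ 95%) on a polar reversed-phase C18 column (Atlantis T3, 3 × 150 mm, 3 μm) at 0.3 mL/min. Elution used water and methanol, each with 0.1% formic acid, in a gradient from 5 to 95% methanol over 17.5 min. Detection was by high-resolution tandem mass spectrometry on a QExactive Plus, with positive and negative electrospray in separate runs. Peaks were found and integrated in TraceFinder (5 ppm tolerance, at least three points per peak) and then checked by hand.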

SMILES	absolute recovery ([1]; wastewater effluent)	absolute recovery ([1]; wastewater influent)	absolute recovery ([2]; nanopure water)	absolute recovery ([2]; surface water)	absolute recovery ([2]; wastewater effluent)	absolute recovery ([2]; wastewater influent)	LC retention time [3]
CC1(C)CCC(Cc2ccc(Cl)cc2)C1(O)Cn1cncn1 (stereo not given) [Metconazole]	100%	105%	95.9%	108%	94.9%	80.9%	21.3 min
N#Cc1cc(I)c([O-])c(I)c1 [Ioxynil]	106%	111%	103%	102%	99.4%	96.2%	19.3 min
Cc1cc(Cl)ccc1OCCCC(=O)[O-] [MCPB]	103%		100%	95.2%	97.5%	108%	20.3 min
COc1nc(C)nc(NC(=O)[N-]S(=O)(=O)c2ccccc2CCC(F)(F)F)n1 [Prosulfuron]	108%	102%	106%	113%	104%	102%	19.3 min
Nc1ccc(C=Cc2ccc(N)cc2S(=O)(=O)[O-])c(S(=O)(=O)[O-])c1 [4-4-diamino-2,2-stilbenedisulfonic-acid]	30%		14.5%	3.4%	9.1%	7.8%	4.15 min
CCCOCC(=Nc1ccc(Cl)cc1C(F)(F)F)n1ccnc1 [Triflumizole]	93.9%	114%	85.9%	104%	97.8%	61.8%	21.3 min
CC(C)c1ccc(N)cc1 [4-Isopropylanilin]	93.8%	96.6%	95.5%	80.7%	80.1%	84.8%	10.4 min
Cc1cccc(N(C)C(=S)Oc2ccc3ccccc3c2)c1 [Tolnaftat]	90.5%	92.4%	63.9%	98%	75.8%	73.4%	22 min
CN1CCN(C)C1=O [1-3-Dimethyl-2-imidazolidinon]	96.5%	104%	26%	29.7%	29.2%	56.1%	10.1 min
CC=CC(=O)N(CC)C(CC)C(=O)N(C)C (stereo not given) [Crotethamide]	97.5%	94.6%	106%	94.6%	86.1%	121%	15.9 min
O=C(Nc1ccccc1-c1ccc(Cl)cc1)c1cccnc1Cl [Boscalid]	88.4%	105%	102%	97.2%	95.2%	104%	19.4 min
CN(C)C(=O)Nc1ccc(Cl)cc1 [Monuron]	103%	106%	99.5%		94.3%	90.3%	16.9 min
COCCN(C(=O)CS(=O)(=O)[O-])c1c(C)cccc1C [Dimethachlor-ESA]	104%	109%	95.5%	102%	102%	84.4%	19.9 min
CCc1ccc(CCOc2ccc(CC3SC(=O)[N-]C3=O)cc2)nc1 (stereo not given) [Pioglitazone]	107%	104%	93.3%	98.1%	104%	90.7%	14.3 min
CC1(C)SC(CNC(=O)C([NH3+])c2ccc(O)cc2)[NH2+]C1C(=O)[O-] (stereo not given) [Amoxicillin-EP-Impurity-E]	59.2%	96.9%		12.2%	17.8%	30.7%	9.5 min
CN(C)C(=[NH2+])NC(N)=[NH2+] [Metformin]	118%		88.2%				3.25 min
Cc1c(N(C)C)c(=O)n(-c2ccccc2)n1C [4-Dimethylaminoantipyrin (=Aminopyrin)]	89.8%	92.9%	72.8%	79.5%	77%	88.2%	9.33 min
CC12CC3CC(C)(C1)CC([NH3+])(C3)C2 [Memantine]	100%	114%	83.4%	83.5%	89.2%	78%	14.9 min
COc1ccc2c3c1OC1C(O)C=CC4C(C2)[NH+](C)CCC341 (stereo not given) [Codein]	104%	102%	90.2%	92.6%	91.7%	93%	9.16 min
Cc1nnc(-c2ccccc2)c(=O)[n-]1 [Metamitron-Desamino]	112%	107%	97.9%	97.8%	89.8%	90.1%	14.5 min
CSc1nc(=O)c(C(C)(C)C)n[n-]1 [Metribuzin-Desamino (=DA)]	101%	109%	96.2%	91.2%	94.4%	90.7%	17.7 min
CCCCOCCOCCOCc1cc2c(cc1CCC)OCO2 [Piperonyl-butoxide]	125%	88.2%	75.2%	66.7%	88.9%		22.7 min
